Experimental data taken from patent US10124008B2, “Use of inhibitors of acid sphingomyelinase to treat acquired and inherited retinal degenerations” (Wisconsin Alumni Research Foundation, priority 2014, dated 2018).
“Also recorded” adds a separate entry of the source.

Columns and labels:
[1] = system: LC3B-II and p62 in primary RPE monolayers; assay: Immunoblotting of LC3B-II and p62 in polarized primary RPE monolayers; format: cell-based, porcine
Method: RPE harvested from mouse eyecups were sonicated in lysis buffer with protease inhibitors for 10 min. Primary RPE on TRANSWELL filters were harvested and lysed with NE-PER nuclear and cytoplasmic extraction reagents (Thermo Scientific #78833) according to the manufacturer's recommendation. Protein concentrations were measured with DC assay (BioRad). […] Proteins were then transferred onto nitrocellulose membrane using IBLOT dry transfer system (INVITROGEN), blocked in 5% milk in TBS-T for 1 hour before incubating in primary antibody overnight at 4° C. Membranes were probed with antibodies to LC3B (1:3000, Novus NB600-1384 for pig and 1:500, Sigma L7543 for mouse), p62/SQSTM1 (1:1000, ARP03-GP62-C) and actin (1:5000, Santa Cruz) followed by horseradish peroxidase-conjugated secondary antibodies. Immunoblots were visualized by ECL substrate (Thermo Scientific) and quantified using Image Studio (LI-COR). […] Other drugs used were the mTOR inhibitors Torin 1 and Torin 2 (50 nM and 1.5 μM, respectively, for 2 h, TOCRIS), the vacuolar ATPase inhibitor bafilomycin A1 (100 nM for 2 h, EMD Millipore), the LXRα agonist TO901317 (1 μM for 20 h, Cayman Chemicals), the HDAC6 inhibitor trichostatin A (TSA, 500 nM, 16 h, Sigma) and the ASMase inhibitor desipramine (10 μM for 3 h, Sigma). To depolymerize MTs, cells were treated with 33 μM nocodazole for 30 minutes, followed by cold-treatment (4° C.) for 30 minutes (Kreitzer et al., 2003). At the concentrations and exposure times used, none of these drugs caused alterations in RPE cell morphology or physiology (monitored by TER measurements, ZO-1 and organelle marker staining). […] Conversion of LC3B-I to its lipidated form (LC3B-II) is an indicator of autophagosome biogenesis and p62 levels are a measure of autophagic flux (Klionsky et al., 2012).

primary RPE cells = assay: Live imaging of tandem fluorescent mRFP-GFP-LC3 (tfLC3), autophagic flux; format: cell-based, porcine; conditions: for autophagic flux / autophagosome-lysosome fusion (tfLC3 EGFP:mRFP): RPE with A2E, 3 h drug incubation (TO901317 1 μM 20 h); for autophagy after mTOR inhibition: polarized primary RPE, Torin 1 50 nM and Torin 2 1.5 μM, 2 h
Method: RPE cells were transfected with EGFP-LC3 or tandem fluorescent mRFP-GFP-LC3 (Addgene) using the AMAXA NUCLEOFECTOR II (Lonza). Approximately 1.5 million cells and 5 μg of plasmid DNA were used for each transfection. Cells were plated either on serum-coated glass-bottom dishes (Mattek) or […] filters at confluence.
Andor IQ2 software was used for image acquisition and Imaris x64 (Bitplane) for image analysis. […] Trafficking data was collected from three separate transfections for a total of at least 12-30 movies captured for treatment. During image acquisition care was taken to maintain the same laser power, exposure and electron-multiplying gain settings. […] After background subtraction (using the background subtraction algorithm and identical automatic threshold for all images) and smoothing (Gaussian algorithm with identical threshold settings for all images), Spots and Tracks algorithms were used to identify vesicles and follow them through time and cell-space to obtain total track length and track displacement.
We used tandem fluorescent mRFP-GFP-LC3 (tfLC3) to monitor autophagy in primary RPE cells in real time.
(§1) We performed two initial screens: first, we compared the ability of functional inhibitors (fluoxetine and amitriptyline) with that of the lone structural ASMase inhibitor zoledronic acid in decreasing acetylated tubulin. Here, polarized RPE monolayers with or without A2E were treated with one of the three inhibitors (10 μM, 3 h). Desipramine as a positive control. At the end of the incubation period, cells were fixed and stained for acetylated tubulin, imaged and the amount of acetylated tubulin in the cells was quantified. Second, we evaluated three additional drugs (sertraline, astemizole and fexofenadine) for their abilities to increase autophagy in the RPE. Cells with or without bisretinoids were transfected with mRFP-GFP-LC3, starved to induce autophagy, treated with drugs and imaged as in FIG. 9D.

[2] = system: acetylated tubulin in polarized primary RPE; assay: Immunofluorescence staining of acetylated and tyrosinated tubulin; format: cell-based, porcine; conditions: for acetylated tubulin in RPE with A2E: inhibitors 10 μM for 3 h, 48 h after A2E treatment
Method: ALEXAFLUOR secondary antibodies were used at 1:500 and rhodamine-phalloidin (Cytoskeleton, PHDR1) at 1:200. Filters were mounted under coverslips on glass slides under […] (Vector labs), sealed and visualized with Andor Revolution XD spinning disk confocal microscope using a 60×1.4 NA oil objective with identical exposures and gains for each antibody. Acetylated tubulin-labeled stable microtubules (≥5 μm in length) after nocodazole treatment were analyzed manually in the Surpass mode of Imaris (Bitplane).
as §1

[3] = Table 4, potential issues; cited from earlier work
[4] = system: EGFP-LC3-labeled autophagosomes in primary RPE; assay: Live imaging of EGFP-LC3 autophagosome trafficking (spinning disk, Boolean gating); format: cell-based, porcine
Method: RPE cells were transfected with EGFP-LC3 or tandem fluorescent mRFP-GFP-LC3 (Addgene) using the AMAXA NUCLEOFECTOR II (Lonza). Approximately 1.5 million cells and 5 μg of plasmid DNA were used for each transfection. Cells were plated either on serum-coated glass-bottom dishes (Mattek) or TRANSWELL filters at confluence. Live imaging of autophagosome traffic and autophagic flux were performed on the Revolution XD spinning disk microscopy system (Andor) equipped with the Yokogawa CSU-X1 confocal spinning disk head, Nikon Eclipse Ti inverted microscope surrounded by an Okolab cage incubator, iXon x3 897 EM-CCD camera, Andor laser combiner with four solid state lasers at 405, 488, 561, and 640 nm and corresponding band-pass filter sets (Sutter), and ASI motorized stage with piezo-Z for rapid Z-stack acquisition. Andor IQ2 software was used for image acquisition and Imaris x64 (Bitplane) for image analysis. For live imaging, cells were serum starved for 2 h to induce autophagy and rapid z-stacks were acquired using the 100×1.49 NA Apo TIRF objective (Nikon) for ˜50 frames at 37° C. Trafficking data was collected from three separate transfections for a total of at least 12-30 movies captured for treatment. During image acquisition care was taken to maintain the same laser power, exposure and electron-multiplying gain settings. Trafficking analysis was carried out using the Spots and Tracks modules of the Imaris software (Liu et al., 2010). After background subtraction (using the background subtraction algorithm and identical automatic threshold for all images) and smoothing (Gaussian algorithm with identical threshold settings for all images), Spots and Tracks algorithms were used to identify vesicles and follow them through time and cell-space to obtain total track length and track displacement. […] Data were analyzed using either a two-tailed t-test or one-way ANOVA followed by Bonferroni or Dunnett's post-tests (GraphPad PRISM). Unless otherwise stated, data are presented as Mean±S.E.M. of ≥3 independent experiments, with 3 to 4 replicates per condition per experiment. […] Regions were defined by: minimum or maximum track length, minimum or maximum displacement and a slope of 0.5 (displacement divided by length). Tracks with slope <0.5 were taken as less straight (region 2) than those with slope of >0.5 (region 3). Tracks within each region are represented as a percent of total number of tracks in Tables 1 and 2. One-way ANOVA or t-tests were used to compare regions between treatment groups. […] To examine the efficiency of autophagosome transport, Spots and Tracks algorithms in Imaris were used to calculate how far each autophagosome traveled (track displacement length) as a function of the movement required to travel that distance (total track length) (Liu et al., 2010).

[5] = A2E-laden RPE after mTOR inhibition, TO901317 1 μM 20 h, desipramine 10 μM 3 h
[6] = percent of total EGFP-LC3 tracks, serum-starved RPE, TSA 500 nM

Q: Which “LC3B-II levels (immunoblot)” value ([1]; after mTOR inhibition, agent versus control RPE) does the source give for `CO/C1=C\C(C)=C\[C@@H](C)[C@@H](O)[C@@H](C)C/C(C)=C/C=C/[C@H](OC)[C@@H]([C@@H](C)[C@@H](O)[C@H](C)[C@@]2(O)C[C@@H](O)[C@H](C)[C@@H](C(C)C)O2)OC1=O` [Bafilomycin A1] here?
A: increased LC3B-II after mTOR inhibition in control cells but not cells exposed to A2E

Q: For `COc1ccc(CCN2CCC(Nc3nc4ccccc4n3Cc3ccc(F)cc3)CC2)cc1` [astemizole], which “autophagic flux / autophagosome-lysosome fusion (tfLC3 EGFP:mRFP)” value (primary RPE cells) is on record?
A: completely reversed the autophagic block induced by A2E

Q: Which acetylated tubulin ([2]; agent alone versus control RPE, U18666A 1 μM, 16 h) does the source give for `CCN(CC)CCO[C@H]1CC[C@@]2(C)C(=CC[C@@H]3[C@@H]2CC[C@]2(C)C(=O)CC[C@@H]32)C1` [U18666A] here?
A: Acetylated tubulin also increased

Q: For `O=P(O)(O)C(O)(Cn1ccnc1)P(=O)(O)O` [zoledronic acid], which oral bioavailability [3] is on record?
A: <4% oral

Q: Which “autophagic flux / autophagosome-lysosome fusion (tfLC3 EGFP:mRFP)” value (primary RPE cells) does the source give for `CN[C@H]1CC[C@@H](c2ccc(Cl)c(Cl)c2)c2ccccc21` [sertraline] here?
A: completely reversed the autophagic block induced by A2E

Q: With `CN(C)CCC=C1c2ccccc2CCc2ccccc21` [amitriptyline] as the compound, how does the “acetylated tubulin in RPE with A2E” value [2] read?
A: as effective as desipramine in decreasing acetylated tubulin; also recorded: decreased acetylated tubulin levels in RPE with A2E back to control levels

Q: Which “LC3B-II levels / autophagosome biogenesis (immunoblot)” value [1, 5] does the source give for `O=S(=O)(c1ccccc1)N(CC(F)(F)F)c1ccc(C(O)(C(F)(F)F)C(F)(F)F)cc1` [TO901317] here?
A: increased autophagosome biogenesis

Q: And the “p62 levels / autophagic flux (immunoblot)” value [1, 5]?
A: significantly lesser than corresponding condition without TO901317

Q: And the “autophagic flux / autophagosome-lysosome fusion (tfLC3 EGFP:mRFP)” value (primary RPE cells)?
A: restored autophagic flux in cells with A2E and decreased EGFP fluorescence back to control levels

Q: With `CNCCC(Oc1ccc(C(F)(F)F)cc1)c1ccccc1` (stereo not shown) [fluoxetine] as the compound, how does the “acetylated tubulin in RPE with A2E” value [2] read?
A: as effective as desipramine in decreasing acetylated tubulin; also recorded: decreased acetylated tubulin levels in RPE with A2E back to control levels

Q: Which “autophagosome trafficking (long-range, directed movements)” value ([4]; agent alone versus control RPE) does the source give for `CC(/C=C/C(=O)NO)=C\[C@@H](C)C(=O)c1ccc(N(C)C)cc1` [TSA, trichostatin A] here?
A: replicated the autophagosome trafficking defects seen in cells with A2E

Q: What about the “Region 1 (R1) (D <2 μm, L <5 μm)” value [4, 6] of the same compound?
A: 88.01%

Q: And the “Region 3 (R3) (L >5 μm, Slope >0.5 μm)” value [4, 6]?
A: 1.64%

Q: Which “autophagy after mTOR inhibition” value (primary RPE cells) does the source give for `Nc1ccc(-c2ccc3ncc4ccc(=O)n(-c5cccc(C(F)(F)F)c5)c4c3c2)cn1` [Torin 2] here?
A: autophagy was upregulated

Q: Which “autophagic flux / autophagosome-lysosome fusion (tfLC3 EGFP:mRFP)” value (primary RPE cells) does the source give for `CC(C)(C(=O)O)c1ccc(C(O)CCCN2CCC(C(O)(c3ccccc3)c3ccccc3)CC2)cc1` (stereo not shown) [Fexofenadine] here?
A: not as effective as astemizole, sertraline or desipramine in increasing autophagic flux

Q: For `CCC(=O)N1CCN(c2ccc(-n3c(=O)ccc4cnc5ccc(-c6cnc7ccccc7c6)cc5c43)cc2C(F)(F)F)CC1` [Torin 1], which “autophagy after mTOR inhibition” value (primary RPE cells) is on record?
A: autophagy was upregulated
